The target in assay [1] is T1, MehpH (crystallization construct) (Gordonia sp. P8219, UniProt Q2MHH5, D259N).
T1 construct: N-terminal 23 residues deleted (core 24-152 and 225-311, lid 153-224), His-tagged, pET30a, E. coli BL21(DE3); four molecules per asymmetric unit
The assay can be described thus: X-ray crystallography, […] Å. In kind it is binding. The note with it: pH 6.2, 16 °C.

A further assay addresses T2, MehpH (Gordonia sp. P8219, UniProt Q2MHH5).
T2 construct: synthetic gene in pET30a, His-tagged, E. coli BL21(DE3)
T2 sequence (Q2MHH5 1-311): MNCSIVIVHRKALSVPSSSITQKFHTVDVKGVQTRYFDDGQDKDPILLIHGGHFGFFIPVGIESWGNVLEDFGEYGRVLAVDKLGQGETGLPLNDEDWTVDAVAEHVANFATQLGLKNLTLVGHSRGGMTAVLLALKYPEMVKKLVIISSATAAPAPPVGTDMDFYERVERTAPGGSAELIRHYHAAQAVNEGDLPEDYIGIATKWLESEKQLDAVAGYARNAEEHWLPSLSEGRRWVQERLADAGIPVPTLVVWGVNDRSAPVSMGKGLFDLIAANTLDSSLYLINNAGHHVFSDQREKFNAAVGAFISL
The assay can be described thus: HPLC of MBP and PA at […] nm. In kind it is biochemical. The note with it: 1.0 mM MBP, 1.0 µM enzyme, 10% DMSO.

Molecules are shown by their SMILES.

T1 sequence (Q2MHH5 entry or part of it D259N): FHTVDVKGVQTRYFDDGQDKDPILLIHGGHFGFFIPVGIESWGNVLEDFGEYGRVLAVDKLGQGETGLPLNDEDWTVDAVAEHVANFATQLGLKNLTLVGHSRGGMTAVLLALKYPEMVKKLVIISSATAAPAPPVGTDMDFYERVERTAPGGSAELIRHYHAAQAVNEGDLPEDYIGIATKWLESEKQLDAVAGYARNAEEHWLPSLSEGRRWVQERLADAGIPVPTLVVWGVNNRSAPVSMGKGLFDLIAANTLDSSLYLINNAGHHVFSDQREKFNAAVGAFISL

Regarding `O=C(O)c1ccccc1C(=O)O` [PA, phthalic acid], the “X-ray crystallography, 2.8 Å” value in assay [1] (covalent ester with Ser125 (acyl-enzyme intermediate), crystals of the D259N mutant with MBP) is listed as “The shape of the electron density is consistent with that of PA”. As to `CCCCO` [butanol], the “X-ray crystallography, 2.8 Å” value in assay [1] (non-covalent, in penetrating tunnel next to active site, one of four molecules, crystals with MBP) is recorded as “we discovered the electron density of butanol in the penetrating tunnel”. On to `CCCCOC(=O)c1ccccc1C(=O)O` [MBP, monobutyl phthalate], for which the “HPLC of MBP and PA at 254 nm” value at MehpH is “Hydrolytic activities of MehpH and its variants using MBP as substrate”.

The values are drawn from paper PMC9977937, “Molecular insights into the catalytic mechanism of plasticizer degradation by a monoalkyl phthalate hydrolase” (Communications Chemistry, 2023).
